biological target: T1, human CTPS1 (Homo sapiens, UniProt P17812); experiment: Human CTPS1 enzyme inhibition (ADP-Glo Max assay); assay type: biochemical; conditions: human full length CTPS1, 25° C., numeric value printed instead of class symbol, read-out: CTPS1 (Human CTPS1 Enzyme Inhibition, IC50)
T1 construct: purchased Proteros biostructures GmbH
T1 sequence (P17812 1-591): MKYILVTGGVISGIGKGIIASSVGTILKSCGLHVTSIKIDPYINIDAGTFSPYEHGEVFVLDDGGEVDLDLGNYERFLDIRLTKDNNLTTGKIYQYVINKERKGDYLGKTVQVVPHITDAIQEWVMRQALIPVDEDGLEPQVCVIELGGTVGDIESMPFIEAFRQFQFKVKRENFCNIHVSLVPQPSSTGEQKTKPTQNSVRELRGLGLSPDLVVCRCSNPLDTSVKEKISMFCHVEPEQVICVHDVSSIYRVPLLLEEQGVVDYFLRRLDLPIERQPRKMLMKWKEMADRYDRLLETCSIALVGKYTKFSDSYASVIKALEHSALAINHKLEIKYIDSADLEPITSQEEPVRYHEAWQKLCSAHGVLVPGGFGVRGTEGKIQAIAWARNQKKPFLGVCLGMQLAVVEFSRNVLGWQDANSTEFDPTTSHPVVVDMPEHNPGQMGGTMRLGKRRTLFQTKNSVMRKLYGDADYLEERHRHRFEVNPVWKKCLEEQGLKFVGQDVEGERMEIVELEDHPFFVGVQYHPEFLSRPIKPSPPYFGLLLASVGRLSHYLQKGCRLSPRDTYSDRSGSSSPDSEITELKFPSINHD
Experimental: The enzyme inhibitory activities of compounds invented against the target of interest were determined using the ADP-GIoTM Max assay (Promega, UK). Assays for human CTPS1 were performed in lx assay buffer containing 50mM Tris, 10mM MgCl2, 0.01% Tween-20, pH to 8.0 accordingly. Finally, immediately before use, L-cysteine was added to the lx assay buffer to a final concentration of 2mM. All reagents are from Sigma-Aldrich unless specified otherwise. Human full length active C-terminal FLAG-Hiss-tag CTPS1 (UniProtKB - P17812, CTPS[1-591]-[…]) was obtained from Proteros biostructures GmbH.
Assay Procedure 3× human CTPS1 protein was prepared in lx assay buffer to the final working protein concentration required for the reaction. A 2uL volume per well of 3x human CTPS1 protein was mixed with 2uL per well of 3× test compound (compound prepared in lx assay buffer to an appropriate final 3× compound concentration respective to the concentration response curve designed for the compounds under test) for 10 minutes at 25° C. The enzymatic reaction was then initiated by addition of a 2uL per well volume of a pre-mixed substrate mix (UltraPure ATP from ADP-GIo™ Max kit (0.31mM), GTP (0.034mM), UTP (0.48mM) and L-glutamine (0.186mM)) and the mixture was incubated for an appropriate amount of time within the determined linear phase of the reaction at 25° C. under sealed plate conditions with constant agitation at 500 revolutions per minute (rpm). ADP-GIo™ Max reagent was added for 60 minutes ([…] per well) and subsequently ADP-GIo™ Max development reagent was added for 60 minutes (12uL per well) prior to signal detection in a microplate reader (EnVision® Multilabel Reader, Perkin Elmer). Following each reagent addition over the course of the assay, assay plates were pulse centrifuged for 30 seconds at 500rpm.
In all cases, the enzyme converts ATP to ADP and the ADP-GIo™ Max reagent subsequently depletes any remaining endogenous ATP in the reaction system. The ADP-GIo™ Max detection reagent converts the ADP that has been enzymatically produced back into ATP and using ATP as a substrate together with luciferin for the enzyme luciferase, light is generated which produces a detectable luminescence. […] The percentage inhibition produced by each concentration of compound was calculated using the equation shown below: […]
Percentage inhibition was then plotted against compound concentration, and the 50% inhibitory concentration (IC50) was determined from the resultant concentration-response curve.

IC50 | SMILES
58600 nM | CS(=O)(=O)Nc1cncc(CC(=O)Nc2ccc(-c3cccnc3)cc2)n1 [P194, 2-(6-(methylsulfonamido)pyrazin-2-yl)-N-(4-(pyridin-3-yl)phenyl)acetamide]

same assay, conditions: human full length CTPS1, 25° C., read-out: CTPS1 (Human CTPS1 Enzyme Inhibition, IC50 grouped by potency range)

SMILES | IC50
CCOc1cncc(-c2ccc(C(=O)NC(CC)c3cncc(NS(=O)(=O)C4CC4)n3)c(F)c2)n1 (single isomer, unassigned) [P224, N-(1-(6-(cyclopropanesulfonamido)pyrazin-2-yl)propyl)-4-(6-ethoxypyrazin-2-yl)-2-fluorobenzamide] | 100 to 1000 nM
CCC(C(=O)Nc1ccc(-c2cnccn2)cc1F)c1ccnc(NS(=O)(=O)C2CC2)n1 (stereo not shown) [P6, 2-(2-(Cyclopropanesulfonamido)pyrimidin-4-yl)-N-(2-fluoro-4-(pyrazin-2-yl)phenyl)butanamide] | 100 to 1000 nM
CCC(C(=O)Nc1ccc(-c2cncc(OCC(F)(F)F)c2)cn1)c1ccnc(NS(=O)(=O)C2CC2)n1 (stereo not shown) [P85] | 100 to 1000 nM
CCC(C(=O)Nc1ccc(-c2cccnc2)cn1)c1ccnc(NS(=O)(=O)C2CC2)n1 (stereo not shown) [P86, N-([3,3′-bipyridin]-6-yl)-2-(2-(cyclopropanesulfonamido)pyrimidin-4-yl)butanamide] | 1000 to 10000 nM
CCC(C(=O)Nc1ccc(-c2cncc(Cl)c2)cc1F)c1ccnc(NS(=O)(=O)C2CC2)n1 (stereo not shown) [P90, N-(4-(5-chloropyridin-3-yl)-2-fluorophenyl)-2-(2-(cyclopropanesulfonamido)pyrimidin-4-yl)butanamide] | 100 to 1000 nM
CCC(C(=O)Nc1ccc(-c2cncc(OCC(F)(F)F)c2)cc1F)c1ccnc(NS(=O)(=O)C2CC2)n1 (stereo not shown) [P91, 2-(2-(cyclopropanesulfonamido)pyrimidin-4-yl)-N-(2-fluoro-4-(5-(2,2,2-trifluoroethoxy)pyridin-3-yl)phenyl)butanamide] | 100 to 1000 nM
CCC(C(=O)Nc1ccc(-c2cncc(OC(C)C)c2)cc1F)c1ccnc(NS(=O)(=O)C2CC2)n1 (stereo not shown) [P92, 2-(2-(cyclopropanesulfonamido)pyrimidin-4-yl)-N-(2-fluoro-4-(5-isopropoxypyridin-3-yl)phenyl)butanamide] | 100 to 1000 nM
CCC(C(=O)Nc1ccc(-c2cccnc2)cc1F)c1ccnc(NS(=O)(=O)C2CC2)n1 (stereo not shown) [P93, 2-(2-(cyclopropanesulfonamido)pyrimidin-4-yl)-N-(2-fluoro-4-(pyridin-3-yl)phenyl)butanamide] | 1000 to 10000 nM
CCC(C(=O)Nc1ccc(-c2cncc(C(F)(F)F)n2)cc1F)c1ccnc(NS(=O)(=O)C2CC2)n1 (stereo not shown) [P94, 2-(2-(cyclopropanesulfonamido)pyrimidin-4-yl)-N-(2-fluoro-4-(6-(trifluoromethyl)pyrazin-2-yl)phenyl)butanamide] | ≤ 100 nM
CCC(C(=O)Nc1ccc(-c2cncc(OCC(F)(F)F)c2)cc1)c1ccnc(NS(=O)(=O)C2CC2)n1 (stereo not shown) [P100, 2-(2-(cyclopropanesulfonamido)pyrimidin-4-yl)-N-(4-(5-(2,2,2-trifluoroethoxy)pyridin-3-yl)phenyl)butanamide] | 100 to 1000 nM
CCC(C(=O)Nc1ccc(-c2cccnc2)cc1)c1ccnc(NS(=O)(=O)C2CC2)n1 (stereo not shown) [P102, 2-(2-(cyclopropanesulfonamido)pyrimidin-4-yl)-N-(4-(pyridin-3-yl)phenyl)butanamide] | 100 to 1000 nM
CC(C(=O)Nc1ccc(-c2cccnc2)cc1)c1ccnc(NS(=O)(=O)C2CC2)n1 (stereo not shown) [P111, 2-(2-(cyclopropanesulfonamido)pyrimidin-4-yl)-N-(4-(pyridin-3-yl)phenyl)propanamide] | 100 to 1000 nM
CCC(C(=O)Nc1ccc(-c2cncc(C(F)(F)F)n2)cn1)c1cccc(NS(=O)(=O)C2CC2)n1 (stereo not shown) [P187, 2-(6-(cyclopropanesulfonamido)pyridin-2-yl)-N-(5-(6-(trifluoromethyl)pyrazin-2-yl)pyridin-2-yl)butanamide] | 100 to 1000 nM
CCC(C(=O)Nc1ccc(-c2cncc(Cl)c2)cc1)c1cccc(NS(=O)(=O)C2CC2)n1 (stereo not shown) [P189, N-(4-(5-chloropyridin-3-yl)phenyl)-2-(6-(cyclopropanesulfonamido)pyridin-2-yl)butanamide] | 1000 to 10000 nM
CCOc1cncc(-c2ccc(NC(=O)C(CC)c3cccc(NS(=O)(=O)C4CC4)n3)c(F)c2)n1 (stereo not shown) [P190, 2-(6-(cyclopropanesulfonamido)pyridin-2-yl)-N-(4-(6-ethoxypyrazin-2-yl)-2-fluorophenyl)butanamide] | 100 to 1000 nM
CCOc1cncc(-c2ccc(NC(=O)C(C)(CCOC)c3cncc(NS(C)(=O)=O)n3)nc2)n1 (stereo not shown) [P199, N-(5-(6-ethoxypyrazin-2-yl)pyridin-2-yl)-4-methoxy-2-methyl-2-(6-(methylsulfonamido)pyrazin-2-yl)butanamide] | 100 to 1000 nM
CCOc1cncc(-c2ccc(NC(=O)C(OC)c3cncc(NS(=O)(=O)C4CC4)n3)nc2)n1 (stereo not shown) [P203, 2-(6-(cyclopropanesulfonamido)pyrazin-2-yl)-N-(5-(6-ethoxypyrazin-2-yl)pyridin-2-yl)-2-methoxyacetamide] | ≤ 100 nM
CCOc1cncc(-c2ccc(NC(=O)C(OC)c3cncc(NS(=O)(=O)C4CC4)n3)cc2)n1 (stereo not shown) [P204, 2-(6-(cyclopropanesulfonamido)pyrazin-2-yl)-N-(4-(6-ethoxypyrazin-2-yl)phenyl)-2-methoxyacetamide] | ≤ 100 nM
CCOc1cncc(-c2ccc(NC(=O)C(C)(OC)c3cncc(NS(=O)(=O)C4CC4)n3)nc2)n1 (stereo not shown) [P205, 2-(6-(cyclopropanesulfonamido)pyrazin-2-yl)-N-(5-(6-ethoxypyrazin-2-yl)pyridin-2-yl)-2-methoxypropanamide] | ≤ 100 nM

Other lines, results leading:

IC50 | SMILES
100 to 1000 nM | CCC(C(=O)Nc1ccc(-c2cncc(C(F)(F)F)c2)cc1)c1ccnc(NS(=O)(=O)C2CC2)n1 (stereo not shown) [P7, 2-(2-(Cyclopropanesulfonamido)pyrimidin-4-yl)-N-(4-(5-(trifluoromethyl)pyridin-3-yl)phenyl)butanamide]
≤ 100 nM | CCC(C(=O)Nc1ccc(-c2cncc(OC(C)C)n2)cc1F)c1ccnc(NS(=O)(=O)C2CC2)n1 (stereo not shown) [P97, 2-(2-(cyclopropanesulfonamido)pyrimidin-4-yl)-N-(2-fluoro-4-(6-isopropoxypyrazin-2-yl)phenyl)butanamide]
100 to 1000 nM | CCC(C(=O)Nc1ccc(-c2cncc(C#N)c2)cc1)c1ccnc(NS(=O)(=O)C2CC2)n1 (stereo not shown) [P99, N-(4-(5-cyanopyridin-3-yl)phenyI)-2-(2-(cyclopropanesulfonamido)pyrimidin-4-yl)butanamide]
100 to 1000 nM | CCC(C(=O)Nc1ccc(-c2cncc(OC(C)C)c2)cc1)c1ccnc(NS(=O)(=O)C2CC2)n1 (stereo not shown) [P101, 2-(2-(cyclopropanesulfonamido)pyrimidin-4-yl)-N-(4-(5-isopropoxypyridin-3-yl)phenyl)butanamide]
100 to 1000 nM | CCC(C(=O)Nc1ccc(-c2cncc(Cl)n2)cc1)c1ccnc(NS(=O)(=O)C2CC2)n1 (stereo not shown) [P104, N-(4-(6-chloropyrazin-2-yl)phenyl)-2-(2-(cyclopropanesulfonamido)pyrimidin-4-yl)butanamide]
≤ 100 nM | CCC(C(=O)Nc1ccc(-c2cncc(OC)n2)cc1)c1ccnc(NS(=O)(=O)C2CC2)n1 (stereo not shown) [P106, 2-(2-(cyclopropanesulfonamido)pyrimidin-4-yl)-N-(4-(6-methoxypyrazin-2-yl)phenyl)butanamide]
≤ 100 nM | CCC(C(=O)Nc1ccc(-c2cncc(OC(C)C)n2)cc1)c1ccnc(NS(=O)(=O)C2CC2)n1 (stereo not shown) [P107, 2-(2-(cyclopropanesulfonamido)pyrimidin-4-yl)-N-(4-(6-isopropoxypyrazin-2-yl)phenyl)butanamide]
100 to 1000 nM | CCC(C(=O)Nc1ccc(-c2cnccn2)cc1)c1ccnc(NS(=O)(=O)C2CC2)n1 (stereo not shown) [P109, 2-(2-(cyclopropanesulfonamido)pyrimidin-4-yl)-N-(4-(pyrazin-2-yl)phenyl)butanamide]
